Data taken from patent US20200376146A1, “NANOBIOLOGIC COMPOSITIONS FOR INHIBITING TRAINED IMMUNITY” (ICAHN SCHOOL OF MEDICINE, priority 2017, published 2020).

What was measured:
[1] = Hydrolysis of (pro-)drugs in nanobiologics; format: physicochemical; conditions: 4° C. in PBS
Protocol: (Pro-)drug recovery and hydrolysis were determined using the following procedure: an aliquot (200 μL) of the particle solution was dried under vacuum, acetonitrile (600 μL) was added and the suspension was sonicated for 20 minutes. The suspension was centrifuged to precipitate any solids and the remaining solution was analyzed using HPLC; except for the malonate derivatives which were analyzed using SFC-MS, and Dimethylmalonate which was analyzed by GC-MS.

[2] = system: heart allograft; test: Cardiac allograft survival (BALB/c hearts into C57BL/6 recipients); format: in vivo, mice; conditions: oral, 5 mg/kg every day for 15 days
[3] = Toxicity in transplant recipients (BUN, serum creatinine, histopathology); format: in vivo, mice; conditions: regimens giving 100% allograft survival for 30 days

hydrolysis of the (pro-)drug in the nanobiologic over time [1] | SMILES | allograft survival for 30 days [2] [%] | blood urea nitrogen (BUN) and serum creatinine [3]
hydrolysis was observed | CCCCCCCCCCCCCCCCCC(=O)O[C@@H]1CC[C@@H](C[C@@H](C)[C@@H]2CC(=O)[C@H](C)/C=C(\C)[C@@H](O)[C@@H](OC)C(=O)[C@H](C)C[C@H](C)/C=C/C=C/C=C(\C)[C@@H](OC)C[C@@H]3CC[C@@H](C)[C@@](O)(O3)C(=O)C(=O)N3CCCC[C@H]3C(=O)O2)C[C@H]1OC [Cis-Rapamycin, Rapamycin-C18] |  | 
 | CO[C@H]1C[C@@H]2CC[C@@H](C)[C@@](O)(O2)C(=O)C(=O)N2CCCC[C@H]2C(=O)O[C@H]([C@H](C)C[C@@H]2CC[C@@H](O)[C@H](OC)C2)CC(=O)[C@H](C)/C=C(\C)[C@@H](O)[C@@H](OC)C(=O)[C@H](C)C[C@H](C)/C=C/C=C/C=C/1C [Rapamycin, rapamycin] | 100 | kidney toxicity parameters show statistical differences between oral rapamycin and mTORi-HDL
